EC50 and half-life data for 53 compounds are collected here from US10183940B2, “Aryl and heteroaryl-fused tetrahydro-1,4-oxazepine amides as somatostatin receptor subtype 4 (SSTR4) agonists” (Boehringer Ingelheim International GmbH, priority 2014, dated 2019).

pEC50: −log10 of the molar value. Some results are limits rather than exact numbers.

The target in series [1] is human Somatostatin 4 receptor (SSTR4) (Homo sapiens (Human), UniProt P31391). Briefly: cAMP assay with human Somatostatin 4 receptor. The format is cell-based. Particulars: hSSTR4 expressing H4 cells, inhibition of Forskolin-stimulated cAMP; read-out: SSTR4 agonism EC50. As for the experimental part:
Method description for cAMP assay with human Somatostatin 4 receptor.
The activation of the SSTR4 receptor (Gi coupled) causes an inhibition of intracellular cAMP after stimulation with Forskolin, which can be quantifiable by use of a suitable assay Kit and an adequate plate reader. This technique is used to characterize pharmacological effects of the SSTR4 receptor agonists by use of hSSTR4 expressing H4 cells.
Compounds are dissolved and diluted in DMSO. The final test solution contains […]. The cAMP standard (Lance cAMP 384 Kit; PerkinElmer, Cat #AD0264) is prepared in assay buffer (HBSS with 0.1% BSA, 5 mM HEPES, […], pH 7.4) containing 1% DMSO and the cAMP standard curve is included at least on one plate. Cells are centrifuged and suspended in assay buffer (incl. 1:100 diluted Alexa antibody).
For the assay 5 μl of a cell suspension (approximately 5000 cells/well)—incl. Alexa antibody (diluted 1:100) are added into a 384 well MTP microtitre plate excepting one row or column (depending on the plate layout), which is reserved for the standard curve. Then 2 μl of compound sample is added as concentration response curve (e.g. 1e-5 M to 6e-10 M), usually in triplicates. Each assay contains incubations with vehicle controls instead of compound as controls for non-inhibited cAMP generation (100% CTL; ‘high values’) and incubations with 1 μM Somatosatin as controls for full inhibition and background (0% CTL; ‘low values’). After approximately 10-15 min incubation time 3 μl Forskolin (dissolved in DMSO, final conc. 15 μM) is added. Then the plates are shaken briefly and incubated for 60 min at room temperature. After 60 min 10 μl of the detection mix is added into all wells followed by an additional incubation period of 1 h. The plates are read in a suitable plate reader.
The analysis of the data is based on the “ratio” of the time-resolved fluorescence measurements of donor and acceptor fluorophore (Ex: 320 nm; Em1: 665 nm; Em2: 615 nm; ratio 665/615). From this ratio, cAMP concentrations are calculated from standard curve and the EC50 is estimated by least square curve fit program.
In general terms: Changes in cAMP serve as a functional read-out for many G protein-coupled receptors.

Series [2] can be described thus: Metabolic stability in human liver microsomes. The format is in vitro ADME. The settings on record: pH 7.6; pooled human liver microsomes, 37° C., 1 μM test compound, NADPH; read-out: Half-life t1/2. As for the experimental part:
The metabolic stability of the compounds according to the invention may be investigated as follows:
The metabolic degradation of the test compound is assayed at 37° C. with pooled human liver microsomes. The final incubation volume of 100 μl per time point contains TRIS buffer pH 7.6 at room temperature (0.1 M), magnesium chloride (5 mM), microsomal protein (1 mg/mL) and the test compound at a final concentration of 1 μM. Following a short preincubation period at 37° C., the reactions are initiated by addition of beta-nicotinamide adenine dinucleotide phosphate, reduced form (NADPH, 1 mM), and terminated by transferring an aliquot into solvent after different time points. After centrifugation (10000 g, 5 min), an aliquot of the supernatant is assayed by LC-MS/MS for the amount of parent compound. The half-life is determined by the slope of the semi-logarithmic plot of the concentration-time profile.
For orientation: Liver microsomes are a subcellular fraction often used to study metabolism.

human Somatostatin 4 receptor (SSTR4), sequence (P31391 whole entry): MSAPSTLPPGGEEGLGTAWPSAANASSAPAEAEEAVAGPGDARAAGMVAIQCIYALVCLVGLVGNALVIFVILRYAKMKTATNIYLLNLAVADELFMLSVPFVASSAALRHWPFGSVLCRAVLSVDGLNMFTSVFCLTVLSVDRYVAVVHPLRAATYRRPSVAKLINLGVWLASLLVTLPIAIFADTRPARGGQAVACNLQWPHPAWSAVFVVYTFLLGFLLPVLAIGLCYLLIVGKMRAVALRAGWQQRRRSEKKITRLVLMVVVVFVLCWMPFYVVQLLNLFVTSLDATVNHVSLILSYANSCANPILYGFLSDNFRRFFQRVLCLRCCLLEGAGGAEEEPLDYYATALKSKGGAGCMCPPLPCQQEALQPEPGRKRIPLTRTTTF

Regarding `Cc1cc2cccnc2c(C(C)(C)NC(=O)c2cccc3c2OCCNC3)n1` [Example 1], the negative logarithm of the EC50 (pEC50) in series [1] was 7.24.

On to `CC(NC(=O)c1cccc2c1OCCNC2)c1nc2ccccc2[nH]1` (stereo not drawn) [Example 2], for which the pEC50 in series [1] is 6.52. As to `CC(C)(NC(=O)c1cccc2c1OCCNC2)c1nc2ccc(Cl)cc2[nH]1` [Example 3], the pEC50 in series [1] was 7.35. The same measure, in the same setting: for `O=C(NC1(c2nc3ccc(Cl)cc3[nH]2)CC1)c1cccc2c1OCCNC2` [Example 4] the value was 6.47; for `O=C(NC1(c2nc3ccc(Cl)cc3[nH]2)CCOC1)c1cccc2c1OCCNC2` (stereo not drawn) [Example 5], 6.12. In the case of `CC(C)(NC(=O)c1cccc2c1OCCNC2)c1cccc2ccccc12` [Example 7], in series [1], the pEC50 is 8.85. Further, the half-life at 1 μM in series [2] was found to be 32 min. Taken in the same sequence, the figures for `CC(C)(NC(=O)c1cccc2c1OCCNC2)c1ccc(Cl)c(Cl)c1.Cl` [Example 8] were 7.65 and 4.4 min. In the same order, the values of `C[C@H](NC(=O)c1cccc2c1OCCNC2)c1cccc2ccccc12.Cl` [Example 9] are 8.55 and 19 min. Regarding `CC(C)(NC(=O)c1cccc2c1OCCNC2)c1cccc2cccnc12` [Example 10], in series [1], the pEC50 was 7.38.

Turning to `CC(C)(NC(=O)c1cccc2c1OCCNC2)c1cccc2cnccc12` [Example 11], the pEC50 in series [1] was 6.37. Same read-out and setting: then `CC(C)(NC(=O)c1cccc2c1OCCNC2)c1cccc2ncccc12` [Example 12], with 7.01.

Take `CC(C)(NC(=O)c1cccc2c1OCCNC2)c1ncc2ccccn12.Cl` [Example 13]: the pEC50 in series [1] was 7.84. Further, in series [2], the half-life at 1 μM was greater than 130 min. Turning to `CC(C)(COc1cnccc1C(F)(F)F)NC(=O)c1cccc2c1OCCNC2` [Example 14], the negative logarithm of the EC50 (pEC50) in series [1] was 6.88. On the same count and under the same terms, then `Cc1cccnc1OCC(C)(C)NC(=O)c1cccc2c1OCCNC2` [Example 15], with 7.55; and `CC(C)(NC(=O)c1cccc2c1OCCNC2)c1ccc(F)cc1` [Example 16], with 7.48.

`CC(C)(NC(=O)c1cccc2c1OCCNC2)c1ccc(Cl)cc1.Cl` [Example 17]: in series [1], the negative logarithm of the EC50 (pEC50) was 8.09. Also, the half-life at 1 μM in series [2] was determined as 14 min. As for `Cn1nc(C(C)(C)NC(=O)c2cncc3c2OCCNC3)c2ccccc21` [Example 21], the negative logarithm of the EC50 (pEC50) in series [1] was 7.45. `Cn1nc(C(C)(C)NC(=O)c2cccc3c2OCCNC3)c2c(F)cccc21` [Example 22]: the negative-log EC50 (pEC50) in series [1] was 8.10. Further, the half-life at 1 μM in series [2] stood at 42 min. Taken in the same sequence, the figures for `Cn1nc(C(C)(C)NC(=O)c2cccc3c2OCCNC3)c2ccc(F)cc21` [Example 23] were 9.05 and 67 min. Taken in the same sequence, the figures for `Cc1cccc2c(C(C)(C)NC(=O)c3cccc4c3OCCNC4)cnn12` [Example 24] were 8.36 and 110 min. Consider `Cn1nc(C(C)(C)NC(=O)c2cccc3c2OCCNC3)c2cccc(C(F)(F)F)c21` [Example 25], for which the negative-log EC50 (pEC50) in series [1] was 8.17.

Regarding `Cc1ncc(C(C)(C)NC(=O)c2cccc3c2OCCNC3)c2ccccc12` [Example 27], the pEC50 in series [1] was 9.22. Moreover, in series [2], the half-life at 1 μM is greater than 130 min. Taken in the same sequence, the figures for `Cc1cc2ccccc2c(C(C)(C)NC(=O)c2cccc3c2OCCNC3)n1` [Example 28] were 8.38 and 30 min.

`Cc1cc2ccccc2c(C(C)(C)NC(=O)c2nccc3c2OCCNC3)n1` [Example 29]: the pEC50 in series [1] was 7.70. Also, the half-life at 1 μM in series [2] came out at 27 min. On to `Cc1cc2ccccc2c(C(C)(C)NC(=O)c2ccnc3c2OCCNC3)n1` [Example 30], for which the pEC50 in series [1] is 7.72. Still for that read-out and setting: for `Cc1cc2ccccc2c(C(C)(C)NC(=O)c2cncc3c2OCCNC3)n1` [Example 31] the value was 7.43. As to `Cc1cccc2c(C(C)(C)NC(=O)c3cccc4c3OCCNC4)noc12` [Example 32], the pEC50 in series [1] is 8.55. In addition, in series [2], the half-life at 1 μM worked out at 54 min.

Turning to `CC(C)(NC(=O)c1cccc2c1OCCNC2)c1noc2c(F)cccc12` [Example 34], the pEC50 in series [1] was 7.74.

Regarding `CC(C)(NC(=O)c1nccc2c1OCCNC2)c1noc2c(F)cccc12` [Example 35], the pEC50 in series [1] is 6.46. Same read-out and setting: then `CC(C)(NC(=O)c1ccnc2c1OCCNC2)c1noc2c(F)cccc12` [Example 36], with 6.42. As to `CC(C)(NC(=O)c1cncc2c1OCCNC2)c1noc2c(F)cccc12` [Example 37], the pEC50 in series [1] was 5.80. For the compound `CC(C)(NC(=O)c1cccc2c1OCCNC2)c1noc2c(Cl)cccc12` [Example 38], the negative-log EC50 (pEC50) in series [1] was 8.54. Besides, the half-life at 1 μM in series [2] is 35 min.

For `Cc1cccc2c(C(C)(C)NC(=O)c3cccc4c3OCCNC4)nn(C)c12` [Example 40], the pEC50 in series [1] is 8.66. In addition, the half-life at 1 μM in series [2] is 31 min. Take `Cc1cccc2c(C(C)(C)NC(=O)c3ccnc4c3OCCNC4)nn(C)c12` [Example 41]: in series [1], the negative-log EC50 (pEC50) was 7.74. In addition, in series [2], the half-life at 1 μM is greater than 130 min. With `CC(C)(NC(=O)c1cccc2c1OCCNC2)c1n[nH]c2c(F)cccc12` [Example 43], the pEC50 in series [1] was 8.66. In addition, the half-life at 1 μM in series [2] stood at 87 min.

For the compound `Cc1cc(F)cn2c(C(C)(C)NC(=O)c3cccc4c3OCCNC4)ncc12` [Example 52], in series [1], the negative logarithm of the EC50 (pEC50) is 8.06. On the same count and under the same terms, for `Cc1cccn2c(C3(NC(=O)c4cccc5c4OCCNC5)CCC3)ncc12` [Example 54] the value was 7.82; for `Cc1cccn2c(C(C)(NC(=O)c3cccc4c3OCCNC4)C3CC3)ncc12` (stereo not drawn) [Example 55], 6.87; for `Cc1cccn2c(C(C)(CC(C)C)NC(=O)c3cccc4c3OCCNC4)ncc12` (stereo not drawn) [Example 56], 5.70. Same read-out and setting: then `Cc1cccn2c(C3(NC(=O)c4cccc5c4OCCNC5)CCOC3)ncc12` (stereo not drawn) [Example 57], with 6.45. `Cc1cccn2c(C3(NC(=O)c4cccc5c4OCCNC5)CCOCC3)ncc12` [Example 58]: the pEC50 in series [1] is 5.60. On the same count and under the same terms, for `CC(C)(NC(=O)c1cccc2c1OCCNC2)c1ncc2c(OC(F)(F)F)cccn12` [Example 59] the value was 7.52; for `Cc1cccn2c([C@H](C)NC(=O)c3cccc4c3OCCNC4)ncc12` [Example 60], 7.03; for `CC(C)(NC(=O)c1cccc2c1OCCNC2)c1nc(C(F)(F)F)c2c(F)cccn12` [Example 63], 7.49. Still for that read-out and setting: for `Cc1nc(C(C)(C)NC(=O)c2cccc3c2OCCNC3)c2cccc(C)c2n1` [Example 65] the value was 7.67; for `CC(C)(NC(=O)c1cccc2c1OCCNC2)c1ncnc2c(F)cccc12` [Example 66], 7.52; for `Cc1nc(C(C)(C)NC(=O)c2cccc3c2OCCNC3)c2cccc(F)c2n1` [Example 67], 7.12. As for `Cc1cccn2c(C(C)(C)NC(=O)c3cccc4c3OCCNC4)nnc12` [Example 68], in series [1], the negative logarithm of the EC50 (pEC50) was 7.42. On the same count and under the same terms, for `Cc1nc2ccccn2c1C(C)(C)NC(=O)c1cccc2c1OCCNC2` [Example 69] the value was 7.75; for `Cc1cccn2c(C3(NC(=O)c4nccc5c4OCCNC5)CC3)ncc12` [Example 73], 7.41. Still for that read-out and setting: then `COc1cccn2c(C(C)(C)NC(=O)c3nccc4c3OCCNC4)ncc12` [Example 74], with 6.97; and `Cc1cccn2c(C(C)(C)NC(=O)c3nccc4c3OCCNC4)nc(C3CC3)c12` [Example 76], with 6.84; and `Cc1cccn2c(C(C)(C)NC(=O)c3nccc4c3OCCNC4)ccc12` [Example 77], with 7.65.

One may read the pEC50 as the EC50 on a negative log10 scale, so that one unit is a factor of ten.
